In article PMC5041982, “Small-molecule inhibition of STAT3 in radioresistant head and neck squamous cell carcinoma” (Oncotarget, 2016):
Several values for one entry are separate records, joined by “and”; a condition that tells them apart may be missing. Identical values can stand only once.

Experiments:
STAT3 = STAT3 (Homo sapiens, UniProt P40763); assay: STAT3/pY-peptide binding surface plasmon resonance (SPR) assay; conditions: for Inhibition of STAT3 binding to pY-peptide compared with C188: SPR; for IC50: STAT3 200 nM, EGFR pY1068 dodecapeptide, mean, n ≥ 2, read-out: pY-Peptide Binding (SPR) IC50
STAT3, sequence (P40763 whole entry, species assumed): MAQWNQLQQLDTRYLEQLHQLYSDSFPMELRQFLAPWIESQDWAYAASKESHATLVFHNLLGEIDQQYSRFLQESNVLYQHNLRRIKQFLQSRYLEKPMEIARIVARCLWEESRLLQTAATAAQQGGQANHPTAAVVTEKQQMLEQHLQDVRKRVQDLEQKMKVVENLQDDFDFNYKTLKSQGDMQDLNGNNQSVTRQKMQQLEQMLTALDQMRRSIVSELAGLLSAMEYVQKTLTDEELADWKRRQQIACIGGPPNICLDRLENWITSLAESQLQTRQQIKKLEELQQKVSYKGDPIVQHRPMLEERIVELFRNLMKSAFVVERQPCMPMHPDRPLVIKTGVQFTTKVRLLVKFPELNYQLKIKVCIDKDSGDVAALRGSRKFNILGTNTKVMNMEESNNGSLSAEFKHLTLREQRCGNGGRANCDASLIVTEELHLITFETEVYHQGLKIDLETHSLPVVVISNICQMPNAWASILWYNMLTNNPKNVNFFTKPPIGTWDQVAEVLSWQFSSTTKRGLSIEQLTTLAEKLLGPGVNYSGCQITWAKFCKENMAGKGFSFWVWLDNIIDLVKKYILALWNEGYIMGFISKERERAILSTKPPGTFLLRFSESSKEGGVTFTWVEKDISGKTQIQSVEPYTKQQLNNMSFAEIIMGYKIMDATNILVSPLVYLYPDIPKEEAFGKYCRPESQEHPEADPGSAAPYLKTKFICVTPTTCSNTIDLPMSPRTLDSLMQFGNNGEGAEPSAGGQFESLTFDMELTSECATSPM
Method: The equilibrium binding levels obtained ± compound were normalized (resonance obtained in the presence of compound ÷ the resonance obtained in the absence of compound × 100) and plotted against Log [nM] […] B. Inhibition of ligand-stimulated STAT phosphorylation, measured by phosphoflow. Serum-starved (1 hour) Kasumi-1 cells, pre-incubated with compound/DMSO (1 hour), were treated with G-CSF (10 ng/ml, 15 min, left two panels) or IFN-γ (10ng/ml, 15 min, right panel). Cells were permeabilized and stained with Alexa647-pSTAT3, and PE-pSTAT1 antibodies and analyzed on BD LSR2. FCS files were uploaded to Cytobank for pSTAT3 and pSTAT1 quantitation. Histograms depicting pSTAT3 and pSTAT1 levels are shown. C. Mean fluorescence (pSTAT3/1) levels were plotted as function the Log [M] compound, and IC50 calculated using GraphPad. […] D. Inhibition of ligand-stimulated STAT phosphorylation, measured by Luminex. Serum-starved (1 hour) Kasumi-1 cells, pre-incubated with compound/DMSO (0/0.1/0.3/1/3/10/100 μM, 1 hour), were treated with G-CSF (10 ng/ml, 15′). Total protein extracts of cells were assayed for pSTAT3, pSTAT1, and GAPDH levels by Luminex. GAPDH-normalized pSTAT3 or pSTAT1 values were divided by this ratio for untreated cells and expressed in percentage. These values were plotted as a function of Log [M] compound, and IC50 values calculated using GraphPad. […]
3-D pharmacophore sorting used to evaluate the effect of each compound on STAT3 binding. Responses were normalized by dividing the […]
fingerprint screening were converted into 3-D structures compounds at 2 min and multiplying by 100. IC values […]
for analysis as described below. were determined by plotting % maximum response as a 3-D pharmacophore generation function of log concentration of compound and fitting the Each molecular chemical feature, including experimental points to a competitive binding model using hydrogen bond donor, hydrogen bond acceptor, positive a four parameter logistic equation: R = Rhigh − (Rhigh − R low)/ (1 + conc/A1)^A2, where R = percent response at and negative ionizable group, and hydrophobic region, inhibitor concentration, R = percent response with no was generated using the LigandScout application compound, R= percent response at highest compound high framework and projected into 3-D space. concentration, A2 = fitting parameter (slope) and A1 = low Feature-pairing IC50 (BIAevaluation Software version 4.1). The inhibition Each chemical feature was converted into distance constant (Ki) was derived from the Cheng-Prusoff bin and the complete set of distance bins used to construct equation Ki=IC50/(1+[C]/Kd) as used by Halling et al a cost matrix. The most favorable pairing based on cost where C stands for STAT3 concentration used in the SPR matrix was identified. assay and Kd denotes the dissociation constant for STAT3 3-D pharmacophore transformation binding to its phosphorylated EGFR ligand in the SPR […]
STAT3/pY-peptide binding assay and total protein extracted from cell pellets. […]
STAT3 binding assays were performed at 25 °C (Millipore, Danvers, MA) coupled to antibody against

pSTAT3 (Tyr-705) = biological target: T1, pSTAT3 (Tyr-705) (Homo sapiens, UniProt P40763); assay: Phosphoflow, G-CSF-induced STAT3 phosphorylation in Kasumi-1 cells; assay type: cell-based; conditions: Kasumi-1, G-CSF 10 ng/ml 15 min; mean, n ≥ 2; read-out: Ligand Induced Phosphorylation (Phosphoflow) pSTAT3 (GCSF) IC50
T1 construct: endogenous in cells; host or cells: Kasumi-1
T1 sequence (P40763 whole entry): as the sequence (P40763 whole entry, species assumed) above
Method: (§1) The equilibrium binding levels obtained ± compound were normalized (resonance obtained in the presence of compound ÷ the resonance obtained in the absence of compound × 100) and plotted against Log [nM] […] B. Inhibition of ligand-stimulated STAT phosphorylation, measured by phosphoflow. Serum-starved (1 hour) Kasumi-1 cells, pre-incubated with compound/DMSO (1 hour), were treated with G-CSF (10 ng/ml, 15 min, left two panels) or IFN-γ (10ng/ml, 15 min, right panel). Cells were permeabilized and stained with Alexa647-pSTAT3, and PE-pSTAT1 antibodies and analyzed on BD LSR2. FCS files were uploaded to Cytobank for pSTAT3 and pSTAT1 quantitation. Histograms depicting pSTAT3 and pSTAT1 levels are shown. C. Mean fluorescence (pSTAT3/1) levels were plotted as function the Log [M] compound, and IC50 calculated using GraphPad. […] D. Inhibition of ligand-stimulated STAT phosphorylation, measured by Luminex. Serum-starved (1 hour) Kasumi-1 cells, pre-incubated with compound/DMSO (0/0.1/0.3/1/3/10/100 μM, 1 hour), were treated with G-CSF (10 ng/ml, 15′). Total protein extracts of cells were assayed for pSTAT3, pSTAT1, and GAPDH levels by Luminex. GAPDH-normalized pSTAT3 or pSTAT1 values were divided by this ratio for untreated cells and expressed in percentage. These values were plotted as a function of Log [M] compound, and IC50 values calculated using GraphPad.
(§2) Phosphoflow analysis was done as described in Xu et al. Briefly, Kasumi-1 cells, were serum-starved, pre-treated with compound or DMSO (1 hour, RT) and then stimulated with 20 μl of GCSF (10 ng/ml) for 15 minutes at 37°C. The cells were then permeabilized and stained with Alexa647-pSTAT3, Alexa488-pSTAT5 and PE-pSTAT1 antibodies and analyzed using the BD LSR2. FCS files were exported and uploaded to Cytobank for determination of phosphoproteins as earlier. Gating was done on live, single cells and then gates selected for positive ligand-activated pSTAT3 and pSTAT1. IC50 values were calculated using the GraphPad Prism.

pSTAT5 = assay: Phosphoflow, G-CSF-induced pSTAT5 in Kasumi-1 cells; assay type: cell-based; conditions: mean, n ≥ 2, read-out: Ligand Induced Phosphorylation (Phosphoflow) pSTAT5 (G-CSF) IC50
Method: as §2

pSTAT1 (Tyr-701) = biological target: T2, pSTAT1 (Tyr-701) (Homo sapiens, UniProt P42224); assay: Phosphoflow, IFN-γ-induced pSTAT1 in Kasumi-1 cells; assay type: cell-based; conditions: Kasumi-1, IFN-γ 10 ng/ml 15 min; mean, n ≥ 2; read-out: Ligand Induced Phosphorylation (Phosphoflow) pSTAT1 (IFN-γ) IC50
T2 construct: endogenous in cells; host or cells: Kasumi-1
T2 sequence (P42224 1-750): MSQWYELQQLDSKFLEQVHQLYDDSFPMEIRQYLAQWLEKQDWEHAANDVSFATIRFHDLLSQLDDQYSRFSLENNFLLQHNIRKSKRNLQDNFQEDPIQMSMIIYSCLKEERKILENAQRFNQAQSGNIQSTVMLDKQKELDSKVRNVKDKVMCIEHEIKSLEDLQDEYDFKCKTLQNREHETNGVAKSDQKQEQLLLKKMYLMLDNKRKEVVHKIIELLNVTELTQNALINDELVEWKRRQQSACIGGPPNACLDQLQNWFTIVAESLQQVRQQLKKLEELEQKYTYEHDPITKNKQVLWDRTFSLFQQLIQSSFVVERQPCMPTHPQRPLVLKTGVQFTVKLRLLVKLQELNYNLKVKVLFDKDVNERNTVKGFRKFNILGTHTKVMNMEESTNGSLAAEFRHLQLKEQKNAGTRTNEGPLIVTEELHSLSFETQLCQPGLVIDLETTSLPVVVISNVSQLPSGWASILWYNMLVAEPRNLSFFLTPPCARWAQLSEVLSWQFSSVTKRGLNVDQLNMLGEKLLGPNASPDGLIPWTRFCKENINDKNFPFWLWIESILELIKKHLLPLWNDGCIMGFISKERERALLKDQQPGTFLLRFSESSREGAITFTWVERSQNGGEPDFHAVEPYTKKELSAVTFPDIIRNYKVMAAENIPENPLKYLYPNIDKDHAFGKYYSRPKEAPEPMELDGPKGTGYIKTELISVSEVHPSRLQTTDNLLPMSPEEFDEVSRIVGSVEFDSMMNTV
Method: as §1, §2

Structure (SMILES) | Inhibition of STAT3 binding to pY-peptide compared with C188 (STAT3) | IC50 (STAT3) | IC50 (pSTAT3 (Tyr-705)) [µM] | IC50 (pSTAT5) [µM] | IC50 (pSTAT1 (Tyr-701)) [µM]
O=[N+]([O-])c1cccc(S(=O)(=O)Nc2cc(Sc3nc4ccccc4s3)c(O)c3ccccc23)c1 [Compound C188-1] | improved inhibition | 5.5 ± 2.1 µM | 16.2 ± 24.1 | 1.5 | 50.5 ± 53
Cc1ccc(S(=O)(=O)Nc2cc(Sc3nc4ccccc4s3)c(O)c3ccccc23)c(C)c1 [Compound C188-2] |  | 20 ± 9.9 µM | 29.8 ± 25.9 | 35 ± 29.7 | 51
Cc1cc(C)c(S(=O)(=O)Nc2cc(C(C(=O)OC(C)C)C(=O)C(F)(F)F)c(O)c3ccccc23)c(C)c1 (stereo not drawn) [Compound C188-3] |  | 17.3 ± 8.5 µM | 21.6 ± 11.1 | 21 | 34.5 ± 10.6
CC(C)OC(=O)C(C(=O)C(F)(F)F)c1cc(NS(=O)(=O)c2ccc(Br)cc2)c2ccccc2c1O (stereo not drawn) [Compound C188-4] |  | 21.5 ± 21.9 µM | 11 ± 1.4 |  | 29
CC(C)OC(=O)C(C(=O)C(F)(F)F)c1cc(NS(=O)(=O)c2ccc(Cl)cc2)c2ccccc2c1O (stereo not drawn) [Compound C188-5] |  | 11.5 ± 7.8 µM | 27 ± 1.4 | > 300 | 
CC(C)OC(=O)C(C(=O)C(F)(F)F)c1cc(NS(=O)(=O)c2ccccc2)c2ccccc2c1O (stereo not drawn) [Compound C188-6] |  | 16 ± 15.6 µM | 23.5 ± 6.4 |  | 
Cc1cc(C)c(S(=O)(=O)Nc2cc(Cl)c(O)c3ccccc23)cc1C [Compound C188-10] | activity similar to C188 | 8 ± 2.8 µM | > 300 | > 300 | > 300
CC(=O)c1c(C)oc2c1cc(NS(=O)(=O)c1cc(C)ccc1C)c1ccccc12 [Compound C188-11] |  | 55 µM and 54.5 µM | > 300 | > 300 | > 300
CC(=O)Nc1c([N+](=O)[O-])cc(NS(=O)(=O)c2ccccc2)c2ccccc12 [Compound C188-12] |  | > 300 µM | > 300 | > 300 | > 300
CC(=O)Nc1c([N+](=O)[O-])cc(N(C(C)=O)S(=O)(=O)c2ccccc2)c2ccccc12 [Compound C188-13] |  | 280 ± 41 µM |  | > 300 | > 300
Cc1cc(C)c(C)c(S(=O)(=O)Nc2cc(SCC(=O)O)c(O)c3ccccc23)c1C [Compound C188-14] | activity similar to C188 | 8.7 ± 9.1 µM | 40.3 ± 50.8 | 10 | 57
